These results are taken from patent publication US20260265250A1, “3-[…] ACTIVATORS OF SEROTONIN RECEPTORS” (Atai Therapeutics, Inc., priority 2023, published 2026).

pEC50: −log10 of the molar value. Structures can show the parent of a compound that is named as a salt.

The target in experiment [1] is T1, 5-HT2A (Homo sapiens, UniProt P28223). As to conditions: compared to reference LSD; cited from earlier work.
Target sequence in this assay (P28223 whole entry): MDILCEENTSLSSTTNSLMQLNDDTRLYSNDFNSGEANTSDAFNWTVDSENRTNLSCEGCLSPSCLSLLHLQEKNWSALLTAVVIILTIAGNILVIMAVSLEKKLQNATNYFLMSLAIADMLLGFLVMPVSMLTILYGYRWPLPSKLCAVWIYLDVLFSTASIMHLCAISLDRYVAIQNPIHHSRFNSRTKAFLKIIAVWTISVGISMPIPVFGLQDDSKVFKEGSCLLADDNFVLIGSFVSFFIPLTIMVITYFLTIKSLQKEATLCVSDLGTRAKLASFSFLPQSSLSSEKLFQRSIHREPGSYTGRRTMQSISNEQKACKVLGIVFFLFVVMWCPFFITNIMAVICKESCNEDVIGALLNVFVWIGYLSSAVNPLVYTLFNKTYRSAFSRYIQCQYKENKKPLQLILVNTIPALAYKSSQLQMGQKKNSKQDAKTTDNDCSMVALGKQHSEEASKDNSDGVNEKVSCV
In experiment [2] the target is T1, 5-HT2A. The experiment is described as follows: Calcium Mobilization Assay (Calcium No-WashPLUS, Gq, FLIPR). As to conditions: read-out: 5-HT2A % activation @30 uM Ca++ Flux. It is filed as cell-based. Here is the method: (§1) Compounds 1-18 were assessed for biological activity across a panel of 5-HT receptors including 5-HT2A, 5-HT2B, and 5-HT2C. Biased signaling was assessed by monitoring both intracellular Gq-mediated calcium release, as well as β-arrestin activation and recruitment to the GPCR. Table 2 is a summary of findings across these compounds and the 5-HT receptors tested. • (i) Arrestin Pathway Assay. The PathHunter® β-Arrestin assay monitors the activation of a GPCR in a homogenous, non-imaging assay format using a technology developed by DiscoverX called Enzyme Fragment Complementation (EFC) with β-galactosidase (β-Gal) as the functional reporter. […] EA is fused to β-Arrestin and PK is fused to the GPCR of interest. When the GPCR is activated and β-Arrestin is recruited to the receptor, ED and EA complementation occurs, restoring β-Gal activity which is measured using chemiluminescent PathHunter® Detection Reagents. PathHunter cell lines (DiscoveRx Eurofins) were expanded from freezer stocks according to standard procedures. Cells were seeded in a total volume of 20 μL into white walled, 384-well microplates and incubated at 37° C. for the appropriate time prior to testing. For agonist determination, cells were incubated with sample to induce response. Intermediate dilution of sample stocks was performed to generate 5× sample in assay buffer. 5 μL of 5× sample was added to cells and incubated at 37° C. or room temperature for 90 to 180 minutes. Vehicle concentration was 1%. β-Arrestin assay signal was generated through a single addition of 12.5 or 15 μL (50% v/v) of PathHunter Detection reagent cocktail, followed by a one-hour incubation at room temperature. Microplates were read following signal generation with a PerkinElmer Envision™ instrument for chemiluminescent signal detection. Compound activity was analyzed using CBIS data analysis suite (ChemInnovation, CA). For agonist mode assays, percentage activity was calculated using the following formula: % Activity=100%×(mean RLU of test sample-mean RLU of vehicle control)/(mean MAX control ligand−mean RLU of vehicle control). In these studies, the MAX control ligand response was generated using 10 mM serotonin. • (ii) Calcium Mobilization Assay. The Calcium No-WashPLUS assay monitors the activation of a GPCR via Gq secondary messenger signaling in a live cell, non-imaging assay format. Calcium mobilization in PathHunter® cell lines or other cell lines stably expressing Gq-coupled GPCRs is monitored using a calcium-sensitive dye that is loaded into cells. GPCR activation by a compound result in the release of calcium from intracellular stores and an increase in dye fluorescence that is measured in real-time. Cell lines expressing the GPCR of interest were expanded from freezer stocks according to standard procedures. Cells were seeded in a total volume of 20 μL into black-walled, clear-bottom, Poly-D-lysine coated 384-well microplates and incubated at 37° C. for the appropriate time prior to testing. Assays were performed in 1× Dye Loading Buffer consisting of 1× Dye, 1× Additive A and 2.5 mM Probenecid in HBSS/20 mM Hepes. Probenicid was prepared fresh. Cells were loaded with dye prior to testing. Media was aspirated from cells and replaced with 20 μL Dye Loading Buffer. Cells were incubated for 30-60 minutes at 37° C. For agonist determination, cells were incubated with sample to induce response. After dye loading, cells were removed from the incubator and 10 μL HBSS/20 mM Hepes was added. 3× vehicle was included in the buffer when performing agonist dose curves to define the EC80 for subsequent antagonist assays. Cells were incubated for 30 minutes at room temperature in the dark to equilibrate plate temperature. Intermediate dilution of sample stocks was performed to generate 4× sample in assay buffer. Compound agonist activity was measured on a FLIPR Tetra (MDS). Calcium mobilization was monitored for 2 minutes and 10 μL 4× sample in HBSS/20 mM Hepes was added to the cells 5 seconds into the assay. […]
Target sequence in this assay (P28223 whole entry): as above
(Calcium assays in cells follow changes in intracellular calcium, usually with a dye or a luminescent sensor.)

The test system of experiment [3] is 5-HT2A receptor. The following applies: cited from earlier work.
The test system of experiment [4] is 5-HT2A receptor. As to conditions: cited from earlier work. The source holds these as a separate data set.
Experiment [5] addresses T1, 5-HT2A. The experiment is described as follows: PathHunter β-Arrestin assay. In kind it is cell-based. Here is the method:
as §1
Target sequence in this assay (P28223 whole entry): as above
Target sequence in this assay (P32121 whole entry, further chain): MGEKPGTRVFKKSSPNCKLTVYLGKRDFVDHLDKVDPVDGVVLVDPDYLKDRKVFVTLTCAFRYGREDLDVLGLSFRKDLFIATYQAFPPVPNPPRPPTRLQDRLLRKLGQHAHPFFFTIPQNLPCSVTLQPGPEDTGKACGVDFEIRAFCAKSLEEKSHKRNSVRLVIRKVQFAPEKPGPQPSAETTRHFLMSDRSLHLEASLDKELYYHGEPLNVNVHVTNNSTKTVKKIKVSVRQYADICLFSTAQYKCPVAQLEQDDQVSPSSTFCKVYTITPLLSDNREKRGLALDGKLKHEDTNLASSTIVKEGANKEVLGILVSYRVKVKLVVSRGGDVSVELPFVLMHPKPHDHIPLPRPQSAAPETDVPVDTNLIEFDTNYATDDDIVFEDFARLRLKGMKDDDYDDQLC

Another experiment deals with T2, 5-HT2C (Homo sapiens, UniProt P28335).
T2 sequence (P28335 33-458): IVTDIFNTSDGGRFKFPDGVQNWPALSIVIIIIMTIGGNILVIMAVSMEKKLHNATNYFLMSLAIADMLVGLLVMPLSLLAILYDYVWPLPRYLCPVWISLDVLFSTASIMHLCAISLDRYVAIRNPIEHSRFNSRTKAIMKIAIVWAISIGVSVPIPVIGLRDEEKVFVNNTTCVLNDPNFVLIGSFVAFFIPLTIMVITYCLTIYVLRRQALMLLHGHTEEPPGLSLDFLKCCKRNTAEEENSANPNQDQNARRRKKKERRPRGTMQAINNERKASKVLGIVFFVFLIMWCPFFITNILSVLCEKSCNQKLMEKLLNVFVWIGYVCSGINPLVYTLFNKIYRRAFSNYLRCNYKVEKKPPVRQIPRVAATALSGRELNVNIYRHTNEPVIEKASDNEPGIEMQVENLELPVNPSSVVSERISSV
The experiment is described as follows: 5-HT receptor panel, 5-HT2C agonist EC50 (readout not stated). It is filed as cell-based. Here is the method:
as §1

In the case of `COc1ccc(OC)c(CCNCc2ccccc2O)c1` [Compound 25H-NBOH], the “preference for recruitment of β-arrestin 2 over miniGaq” value (“preference … over miniGaq” below) at 5-HT2A [1] is “statistically significant preference towards the recruitment of β-arrestin 2 over miniGaq”. `COc1ccc(OC)c(CCNCc2ccccc2OC)c1` [Compound 25H-NBOMe]: the “preference … over miniGaq” value at 5-HT2A [1] is on record as “statistically significant preference towards the recruitment of β-arrestin 2 over miniGaq”. Turning to `Cc1cc(Cl)cc(CNCCn2cnc3ccccc32)c1` [Compound 13, 2-(1H-benzo[d]imidazol-1-yl)-N-(3-chloro-5-methylbenzyl) ethan-1-amine hydrochloride], the activation at 30 µM at 5-HT2A [2] was determined as 43.5%. For the compound `CCN(CC)C(=O)[C@@H]1C=C2c3cccc4[nH]cc(c34)C[C@H]2N(C)C1` [LSD], in the experiment with 5-HT2A receptor [3], the “activation of canonical Gq-based signaling downstream of 5-HT2A” value is on record as “activate canonical Gq-based signaling downstream of 5-HT2A”. Also, the “expression of early growth response proteins (EGR1 and EGR2) via Gi/o subunits and SRC protein kinase” value in the experiment with 5-HT2A receptor [4] is “stimulated the expression of early growth response proteins (EGR1 and EGR2)”. As for `Cc1cc(Cl)cc(CN(C)CCc2c[nH]c3ccccc23)c1` [Compound 18], at 5-HT2A [2], the activation at 30 µM is 93.3%.

In general, pEC50 refers to the negative decadic logarithm of the EC50, by convention in mol/L. The low end stands for a high EC50, the high end for a low EC50. `Cc1cc(Cl)cc(CNCCc2cn(C)c3ccccc23)c1` [Compound 5, N-(3-chloro-5-methylbenzyl)-2-(1-methyl-1H-indol-3-yl) ethan-1-amine]: the activation at 30 µM on 5-HT2A [2] worked out at 112%. Moreover, the figures for the pEC50 on 5-HT2A [5] and at 5-HT2C were 7.76 and 6.94, respectively. In the case of `CCn1cc(CC(C)NCc2cc(C)cc(Cl)c2)c2ccccc21` (stereo not drawn) [Compound 8, N-(3-chloro-5-methylbenzyl)-1-(1-ethyl-1H-indol-3-yl) propan-2-amine], on 5-HT2A [2], the activation at 30 µM stood at 86.4%.

Turning to `CCn1cc(CCNCc2cc(C)cc(Cl)c2)c2ccccc21` [Compound 7, N-(3-chloro-5-methylbenzyl)-2-(1-ethyl-1H-indol-3-yl) ethan-1-amine hydrochloride], the activation at 30 µM at 5-HT2A [2] stood at 95.9%. For the same compound, the values for the negative-log EC50 (pEC50) on 5-HT2A [5] and on 5-HT2C were 7.76 and 8.40, respectively. Consider `Cc1cc(Cl)cc(CNCc2c[nH]c3ccccc23)c1` [Compound 3, N-((1H-indol-3-yl)methyl)-1-(3-chloro-5-methylphenyl) methanamine hydrochloride], for which, at 5-HT2A [2], the activation at 30 µM amounted to 77.2%. Consider `COc1ccc(OC)c(CCNCc2cccc3c2OCO3)c1` [Compound 25H-NBMD], for which, at 5-HT2A [1], the “preference … over miniGaq” value was “statistically significant preference towards the recruitment of β-arrestin 2 over miniGaq”. Turning to `Cc1cc(Cl)cc(CNCCc2nn(C)c3ccccc23)c1` [Compound 11, N-(3-chloro-5-methylbenzyl)-2-(1-methyl-1H-indazol-3-yl)-ethan-1-amine], the activation at 30 µM on 5-HT2A [2] was determined as 79.1%.

With `Cc1cc(F)cc(CNCCc2c[nH]c3ccccc23)c1` [Compound 10, N-(3-fluoro-5-methylbenzyl)-2-(1H-indol-3-yl) ethan-1-amine hydrochloride], the activation at 30 µM at 5-HT2A [2] was found to be 72.6%. Turning to `Cc1cc(Cl)cc(CNCCc2c(C)[nH]c3ccccc23)c1` [Compound 9, N-(3-chloro-5-methylbenzyl)-2-(2-methyl-1H-indol-3-yl) ethan-1-amine hydrochloride], the activation at 30 µM at 5-HT2A [2] came to 88.9%. Moreover, the pEC50 at 5-HT2A [5] was 7.82; on 5-HT2C, below 6.00.

Consider `COc1cc2c(CCNCc3cc(C)cc(Cl)c3)c[nH]c2cc1I` [Compound 4, N-(3-chloro-5-methylbenzyl)-2-(6-iodo-5-methoxy-1H-indol-3-yl) ethan-1-amine], for which the activation at 30 µM at 5-HT2A [2] was determined as 96.4%. In addition, the pEC50 on 5-HT2A [5] is 7.22; at 5-HT2C it was 6.42.

As to `Cc1cc(Cl)cc(CNCCc2c[nH]c3ccccc23)c1` [Compound 1, N-(3-chloro-5-methylbenzyl)-2-(1H-indol-3-yl) ethan-1-amine], the activation at 30 µM at 5-HT2A [2] was determined as 77.8%. Also, the pEC50 at 5-HT2A [5] is 8.35; at 5-HT2C it was 7.55. Regarding `Cc1cc(Cl)cc(CNCCn2ncc3ccccc32)c1` [Compound 12, N-(3-chloro-5-methylbenzyl)-2-(1H-indazol-1-yl) ethan-1-amine hydrochloride], the activation at 30 µM on 5-HT2A [2] is 69.8%. As for `COc1ccc(OC)c(CCNCc2ccccc2F)c1` [Compound 25H-NBF], the “preference … over miniGaq” value at 5-HT2A [1] is “statistically significant preference towards the recruitment of β-arrestin 2 over miniGaq”. In the case of `Cc1cc(Cl)cc(CNC(C)Cc2c[nH]c3ccccc23)c1` (stereo not drawn) [Compound 2, N-(3-chloro-5-methylbenzyl)-1-(1H-indol-3-yl) propan-2-amine], the activation at 30 µM on 5-HT2A [2] is 84.2%. For the same compound, the negative-log EC50 (pEC50) on 5-HT2A [5] was 6.36; at 5-HT2C it was 6.99. For `Cc1cc(Cl)cc(CNC(C)Cc2cn(C)c3ccccc23)c1` (stereo not drawn) [Compound 6, N-(3-chloro-5-methylbenzyl)-1-(1-methyl-1H-indol-3-yl) propan-2-amine], on 5-HT2A [2], the activation at 30 µM is 110%. Same read-out and setting: then `Cc1cc(Cl)cc(CNCCn2c(=O)oc3ccccc32)c1` [Compound 17, 3-(2-((3-chloro-5-methylbenzyl)amino)ethyl)benzo-[d]oxazol-2(3H)-one], with -5.4%.
